Data published in patent US9181258B2, “Substituted 3,4-dihydropyrrolo[1,2-a]pyrazin-1(2H)-ones as protein kinase inhibitors” (NERVIANO MEDICAL SCIENCES S.R.L., priority 2011, dated 2015).
Structures can show the parent of a compound that is named as a salt.

Key:
human PIM1 = human PIM1 (Homo sapiens (Human), UniProt P11309); experiment: Biochemical assay for inhibitors of PIM1 kinase activity (trans-phosphorylation, Dowex technique); details: ATP 200 μM, Aktide 25 μM, enzyme 1 nM; read-out: PIM-1 IC50
Experimental: Biochemical Assay for Inhibitors of PIM1 Kinase Activity
The inhibitory activity of putative kinase inhibitors and the potency of selected compounds were determined using a trans-phosphorylation assay.
Specific peptide or protein substrates were trans-phosphorylated by their specific ser-thr or tyr kinase in the presence of ATP traced with ^33P-γ-ATP, and in the presence of their own optimal buffer and cofactors.
At the end of the phosphorylation reaction, more than 98% unlabeled ATP and radioactive ATP were captured by an excess of the ion exchange dowex resin; the resin then settled down to the bottom of the reaction plate by gravity. Supernatant was subsequently withdrawn and transferred into a counting plate, then evaluated by β-counting.
Reagents/Assay Conditions i. Dowex Resin Preparation
500 g of wet resin (SIGMA, custom prepared resin DOWEX 1×8 200-400 mesh, 2.5 Kg) were weighed out and diluted to 2 L in 150 mM sodium formate, pH 3.00.
The resin was allowed to settle down (some hours) and then the supernatant was discarded.
After three washes as above over a couple of days, the resin was allowed to settle and two volumes (wrt the resin volume) of 150 mM sodium formate buffer were added.
The pH was then measured and should have been around 3.00.
The washed resin was stable for more than one week; the stock resin was kept at 4° C. before use.
The buffer for PIM1 assay was composed of HEPES 50 mM, at pH 7.5, with 10 mM MgCl2, 1 mM DTT, 3 μM NaVO3, and 0.2 mg/mL BSA.
Full-length human PIM1 was expressed and purified as described in Bullock A N, et al., J. Biol. Chem. 2005, 280, 41675-82.
1.7 μM PIM1 was incubated 1 h at 28° C. in the presence of 125 μM ATP.
ATP concentration: 200 μM; ^33P-γ-ATP: 6 nM; Enzyme concentration: 1 nM Substrate concentration Aktide (Chemical Abstract Service Registry Number 324029-01-8): 25 μM iv. Robotized Dowex Assay
The test mix consisted of:
1) 3× Enzyme mix (done in Kinase Buffer 3×), 5 μL/well
2) 3× substrate and ATP mix (done in ddH2O), together with ^33P-γ-ATP, 5 μL/well 3) 3× test compounds (diluted into ddH2O—3% DMSO)—5 μL/well See below for compound dilution and assay scheme […]
An automated station (Biomek FX, Beckman) was used for serial dilutions, producing 1:3 dilutions in 100% DMSO, from line A1 to A10, for all the compounds in the column.
Data were analyzed by an internally customized version of the “Assay Explorer” SW package, which provided sigmoidal fitting of the ten-dilution curves for IC50 determination in secondary assay/hit confirmation routines.

MV-4-11 cells = experiment: In vitro cell proliferation assay (CellTiter-Glo), MV-4-11; type: cell-based; details: Homo sapiens, MV4-11, 72 hours
Experimental: (§1) In Vitro Cell Proliferation Assay
MV-4-11 (biphenotypic B myelomonocytic leukemia) cell line was obtained from ATCC.
Media for MV-4-11 cell line contained RPMI 1640 or EMEM plus 2 mM Glutamine and 10% Fetal bovine serum.
(§2) BaF3-PIM1 and MV-4-11 cells were seeded at 125 cells/well and 1250 cells/well respectively in a 384-well white plates in complete medium and treated with compounds dissolved in 0.1% DMSO, 24 h after seeding.
(§3) The cells were incubated at 37° C. and 5% CO2 and after 72 hours the plates were processed using CellTiter-Glo assay (Promega) following the manufacturer's instruction.
(§4) CellTiter-Glo was a homogenous method based on the quantification of the ATP present, an indicator of metabolitically active cells. ATP was quantified using a system based on luciferase and D-luciferin resulting into light generation. The luminescent signal was proportional to the number of cells present in culture.
(§5) Briefly 25 μl/well reagent solution were added to each wells and after 5 minutes shacking microplates were red by Envision (PerkinElmer) luminometer. The luminescent signal was proportional to the number of cells present in culture.
(§6) Inhibitory activity was evaluated comparing treated versus control data using Assay Explorer (MDL) program. IC50 was calculated using sigmoidal interpolation curve.

human PIM2 = human PIM2 (Homo sapiens (Human), UniProt Q9P1W9); experiment: PIM2 kinase inhibition assay: Dowex technique; type: biochemical; details: ATP 4 μM, Aktide 5 μM, enzyme 1.5 nM; read-out: PIM-2 IC50
Experimental: Method for PIM2 Kinase Inhibition Assay: Dowex Technique
The buffer for PIM2 assay was composed of HEPES 50 mM, at pH 7.5, with 1 mM MgCl2, 1 mM DTT, 3 μM Na3VO4, and 0.2 mg/mL BSA.
Full-length human PIM2 was expressed and purified as described in Fedorov O, et al., PNAS 2007 104, 51, 20523-28. ii. Assay Conditions (Final Concentrations)
Enzyme concentration=1.5 nM; ATP=4 μM; ^33P-γ-ATP=1 nM
Aktide substrate (Chemical Abstract Service Registry Number 324029-01-8)=5 μM iii. Robotized Dowex Assay
See above: same procedure as described for PIM1.

BaF3-PIM1 cells = experiment: In vitro cell proliferation assay (CellTiter-Glo), BaF3-PIM1; type: cell-based; details: 72 hours
Experimental: as §1, §2, §3, §4, §5, §6

Sequence of human PIM1 (P11309 whole entry): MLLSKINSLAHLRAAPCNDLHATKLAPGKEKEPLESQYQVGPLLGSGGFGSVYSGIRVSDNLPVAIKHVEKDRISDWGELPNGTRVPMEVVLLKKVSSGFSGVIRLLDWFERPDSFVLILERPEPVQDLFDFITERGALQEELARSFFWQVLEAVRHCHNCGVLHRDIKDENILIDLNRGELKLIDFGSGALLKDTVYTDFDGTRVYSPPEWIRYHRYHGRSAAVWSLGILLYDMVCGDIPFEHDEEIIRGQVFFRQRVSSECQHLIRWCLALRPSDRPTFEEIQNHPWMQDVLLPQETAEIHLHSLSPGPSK
Sequence of human PIM2 (Q9P1W9 whole entry): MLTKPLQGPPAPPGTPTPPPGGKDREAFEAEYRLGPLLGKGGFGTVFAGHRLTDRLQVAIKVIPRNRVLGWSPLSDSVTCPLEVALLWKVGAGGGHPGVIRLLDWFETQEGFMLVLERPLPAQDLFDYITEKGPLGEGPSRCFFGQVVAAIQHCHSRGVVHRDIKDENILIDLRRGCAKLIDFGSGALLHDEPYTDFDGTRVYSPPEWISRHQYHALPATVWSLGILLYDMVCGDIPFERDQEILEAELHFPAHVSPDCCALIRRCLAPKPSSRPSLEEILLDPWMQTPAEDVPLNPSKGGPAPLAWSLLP

Row | IC50 (human PIM1) | IC50 (MV-4-11 cells) | IC50 (human PIM2) | IC50 (BaF3-PIM1 cells) | SMILES
1 | 19 nM | 2620 nM | 143 nM | 315 nM | NCCC1CNC(=O)c2cc(-c3cccc(OC(F)(F)F)c3)c(-c3ccsc3)n21 (centres unmarked) [Compound 29, 4-(2-aminoethyl)-6-(thiophen-3-yl)-7-[3-(trifluoromethoxy)phenyl]-3,4-dihydropyrrolo[1,2-a]pyrazin-1(2H)-one hydrochloride]
2 | 23 nM | 2590 nM | 51 nM | 326 nM | Cc1cccc(-c2c(-c3cccc(OC(F)(F)F)c3)cc3n2C(CCN)CNC3=O)c1 (centres unmarked) [Compound 31, 4-(2-aminoethyl)-6-(3-methylphenyl)-7-[3-(trifluoromethoxy)phenyl]-3,4-dihydropyrrolo[1,2-a]pyrazin-1(2H)-one hydrochloride]
3 | 43 nM | 5040 nM | 155 nM | 340 nM | NCCC1CNC(=O)c2cc(-c3cccc(C(F)(F)F)c3)c(-c3ccsc3)n21 (centres unmarked) [Compound 40, 4-(2-aminoethyl)-6-(thiophen-3-yl)-7-[3-(trifluoromethyl)phenyl]-3,4-dihydropyrrolo[1,2-a]pyrazin-1(2H)-one hydrochloride]
4 | 41 nM | 3170 nM | 102 nM | 3960 nM | Cc1cccc(-c2c(-c3ccnc(Cl)c3)cc3n2C(CCN)CNC3=O)c1 (centres unmarked) [Compound 45, 4-(2-aminoethyl)-7-(2-chloropyridin-4-yl)-6-(3-methylphenyl)-3,4-dihydropyrrolo[1,2-a]pyrazin-1(2H)-one hydrochloride]
5 | 17 nM | 3600 nM | 77 nM | 140 nM | NCCC1CNC(=O)c2cc(-c3cc(Cl)ccc3F)c(-c3ccsc3)n21 (centres unmarked) [Compound 55, 4-(2-aminoethyl)-7-(5-chloro-2-fluorophenyl)-6-(thiophen-3-yl)-3,4-dihydropyrrolo[1,2-a]pyrazin-1(2H)-one hydrochloride]
6 | 16 nM | 2600 nM | 32 nM | 239 nM | NCCC1CNC(=O)c2cc(-c3cc(Cl)ccc3F)c(-c3ccccc3)n21 (centres unmarked) [Compound 57, 4-(2-aminoethyl)-7-(5-chloro-2-fluorophenyl)-6-phenyl-3,4-dihydropyrrolo[1,2-a]pyrazin-1(2H)-one hydrochloride]
7 | 40 nM | 4620 nM | 114 nM | 323 nM | Cc1cccc(-c2c(-c3cc(Cl)ccc3F)cc3n2C(CCN)CNC3=O)c1 (centres unmarked) [Compound 59, 4-(2-aminoethyl)-7-(5-chloro-2-fluorophenyl)-6-(3-methylphenyl)-3,4-dihydropyrrolo[1,2-a]pyrazin-1(2H)-one hydrochloride]
8 | 14 nM | 3140 nM | 44 nM | 273 nM | CN1CCN(Cc2ccc(-c3c(-c4cccc(OC(F)(F)F)c4)cc4n3C(CCCl)CNC4=O)cc2)CC1 (centres unmarked) [Compound 71, 4-(2-chloroethyl)-6-{4-[(4-methylpiperazin-1-yl)methyl]phenyl}-7-[3-(trifluoromethoxy)phenyl]-3,4-dihydropyrrolo[1,2-a]pyrazin-1(2H)-one trifluoroacetate]
9 | 1 nM | 5960 nM | 35 nM | 486 nM | CN1CCN(Cc2ccc(-c3c(-c4cccc(OC(F)(F)F)c4)cc4n3C(CCO)CNC4=O)cc2)CC1 (centres unmarked) [Compound 82, 4-(2-hydroxyethyl)-6-{4-[(4-methylpiperazin-1-yl)methyl]phenyl}-7-[3-(trifluoromethoxy)phenyl]-3,4-dihydropyrrolo[1,2-a]pyrazin-1(2H)-one trifluoroacetate]
10 | 23 nM |  | 36 nM | 53 nM | COc1ccc(-c2c(-c3cccc(OC(F)(F)F)c3)cc3n2[C@@H](CCN)CNC3=O)cc1F [Compound 113, (4S)-4-(2-aminoethyl)-6-(3-fluoro-4-methoxyphenyl)-7-[3-(trifluoromethoxy)phenyl]-3,4-dihydropyrrolo[1,2-a]pyrazin-1(2H)-one hydrochloride]
11 | 1 nM |  | 3 nM | 150 nM | NCC[C@H]1CNC(=O)c2cc(-c3cccc(OC(F)(F)F)c3)c(-c3ccc(C4(N)CC4)cc3)n21 [Compound 130, (4S)-6-[4-(1-aminocyclopropyl)phenyl]-4-(2-aminoethyl)-7-[3-(trifluoromethoxy)phenyl]-3,4-dihydropyrrolo[1,2-a]pyrazin-1(2H)-one hydrochloride]
12 | 1 nM |  | 13 nM | 6450 nM | CN1CCN(Cc2ccc(-c3c(-c4cccc(OC(F)(F)F)c4)cc4n3[C@@H](CCCN)CNC4=O)cc2)CC1 [Compound 135, (4S)-4-(3-aminopropyl)-6-{4-[(4-methylpiperazin-1-yl)methyl]phenyl}-7-[3-(trifluoromethoxy)phenyl]-3,4-dihydropyrrolo[1,2-a]pyrazin-1(2H)-one dihydrochloride]
13 | 12 nM |  | 173 nM | 276 nM | CC(C)[C@H]1CNC(=O)c2cc(-c3cccc(OC(F)(F)F)c3)c(-c3ccc(CN)cc3)n21 [Compound 138, (4S)-6-[4-(aminomethyl)phenyl]-4-(propan-2-yl)-7-[3-(trifluoromethoxy)phenyl]-3,4-dihydropyrrolo[1,2-a]pyrazin-1(2H)-one]
14 | 8 nM |  | 19 nM | 1770 nM | CS(=O)(=O)c1ccc(-c2c(-c3cccc(OC(F)(F)F)c3)cc3n2[C@@H](CCNC(=N)N)CNC3=O)cc1 [Compound 149, 1-(2-{(4S)-6-[4-(methylsulfonyl)phenyl]-1-oxo-7-[3-(trifluoromethoxy)phenyl]-1,2,3,4-tetrahydropyrrolo[1,2-a]pyrazin-4-yl}ethyl)guanidine hydrochloride]

Row | SMILES | IC50 (human PIM1) | IC50 (MV-4-11 cells) | IC50 (human PIM2) | IC50 (BaF3-PIM1 cells)
15 | NCCC1CNC(=O)c2cc(-c3cccc(OC(F)(F)F)c3)c(-c3ccccc3)n21 (centres unmarked) [Compound 28, 4-(2-aminoethyl)-6-phenyl-7-[3-(trifluoromethoxy)phenyl]-3,4-dihydropyrrolo[1,2-a]pyrazin-1(2H)-one hydrochloride] | 7 nM | 1740 nM | 55 nM | 275 nM
16 | CN(C)Cc1ccc(-c2c(-c3cccc(OC(F)(F)F)c3)cc3n2C(CCCl)CNC3=O)cc1 (centres unmarked) [Compound 70, 4-(2-chloroethyl)-6-{4-[(dimethylamino)methyl]phenyl}-7-[3-(trifluoromethoxy)phenyl]-3,4-dihydropyrrolo[1,2-a]pyrazin-1(2H)-one trifluoroacetate] | 16 nM | 1500 nM | 113 nM | 418 nM
17 | Cc1cccc(-c2c(-c3cccc(OC(F)(F)F)c3)cc3n2[C@@H](CCNC(=N)N)CNC3=O)c1 [Compound 148, 1-(2-{(4S)-6-(3-methylphenyl)-1-oxo-7-[3-(trifluoromethoxy)phenyl]-1,2,3,4-tetrahydropyrrolo[1,2-a]pyrazin-4-yl}ethyl)guanidine hydrochloride] | 8 nM |  | 12 nM | 110 nM
